Measurements reported in patent publication US4139605A, “Water-soluble, non-ionizing, radiopaque compounds and contrast compositions containing the same” (Bracco Industria Chimica S.p.A., priority 1977, dated 1979).
Values after ≈ are worked out from the molar mass of the structure shown. “Also recorded” adds a separate entry of the source. Where two headings read alike, the source gives them in different places.

Assays:
[1] = Osmotic pressure of aqueous solutions at 37° C.; assay type: physicochemical
Procedure: (§1) Toxicity is listed as LD50 in mg I/kg body weight 12 days after intravenous injection and 48 hours after intracerebral injection in mice. The osmotic pressure was determined at 37° C. in solutions containing 400 mg I per ml, unless specifically noted otherwise, and is indicated in atmospheres.

[2] = Solubility in water, methanol and ethanol; assay type: physicochemical
mouse [3] = assay: Toxicity, LD50 48 hours after intracerebral injection in mice; assay type: in vivo; conditions: 48 hours after injection
Procedure: as §1

[4] = Viscosity of aqueous solutions at body temperature; assay type: physicochemical; conditions: aqueous solutions containing
[5] = Stability and storage life of solutions; assay type: physicochemical; conditions: aqueous solutions
[6] = General toxicity and side effects; assay type: in vivo; conditions: in words
rabbits = assay: Intracisternal toxicity, LD50 (48 hours) in rabbits; assay type: in vivo
Procedure: The preferred compounds of the invention are those identified in the table above by letters B and C. […] LD50 (48 hours) in rabbits is about 233 mg I per kg.

mouse [7] = assay: Toxicity, LD50 12 days after intravenous injection in mice; assay type: in vivo; conditions: 12 days after injection
Procedure: Properties of compounds A, B, C, D of this invention, of the chemically nearest known compounds E, F, and of chemically less closely related known radiopaque compounds G, H, I used heretofore for visualizing blood vessels and cavities of the spinal cord and the brain are listed in the Table hereinbelow. Toxicity is listed as LD50 in mg I/kg body weight 12 days after intravenous injection and 48 hours after intracerebral injection in mice. The osmotic pressure was determined at 37° C. in solutions containing 400 mg I per ml, unless specifically noted otherwise, and is indicated in atmospheres.

[8] = water, 20° C., read-out: solubility in water

solubility in water ([2]; water, in words) | SMILES | Osmotic pressure ([1]; 400 mg I per ml) [atm.] | Toxicity, LD50, intracerebral (mouse [3]) [mg I/kg] | Toxicity, LD50, intravenous (mouse [7]) [mg I/kg] | further results
– | CC(O)C(=O)Nc1c(I)c(C(=O)NCCOCCOCCNC(=O)c2c(I)c(NC(=O)C(C)O)c(I)c(C(=O)NC(CO)CO)c2I)c(I)c(C(=O)NC(CO)CO)c1I (stereo not shown) [Compound A, 1,8-bis-[5,-(1,3-dihydroxyisopropyl)aminocarbonyl-3-(2-hydroxypropionyl)amino-2,4,6-triiodo-benzoylamino]-3,6,dioxaoctane] | 8.15 | 1100 | – | solubility in ethanol ([2]; boiling ethanol): about 2.5%; solubility in ethanol ([2]; ethanol, in words): sparingly soluble in ethanol; solubility in ethanol ([2]; ethanol, room temperature): about 1%; solubility in methanol ([2]; methanol, in words): soluble in methanol; solubility [2, 8]: ~500 mg/mL (≈ 329 mM); solubility ([2]; water, boiling temperature, read-out: solubility in water): ~1000 mg/mL (≈ 658 mM)
– | CC(O)C(=O)Nc1c(I)c(C(=O)NCCCOCCOCCOCCOCCCNC(=O)c2c(I)c(NC(=O)C(C)O)c(I)c(C(=O)NC(CO)CO)c2I)c(I)c(C(=O)NC(CO)CO)c1I (stereo not shown) [Compound B, 1,16-bis-[5-(1,3-dihydroxyisopropyl)aminocarbonyl-3-(2-hydroxypropionyl)amino-2,4,6-triiodobenzoylamino]-4,7,10,13-tetraoxahexadecane] | – | 990 | – | viscosity [4]: relatively low viscosity; stability of solutions [5]: stable; storage life of solutions [5]: long storage life; solubility ([2]; methanol, organic solvent or mixture, boiling methanol, read-out: solubility in methanol): 500 mg/mL (≈ 306 mM); solubility [2, 8]: ~1000 mg/mL (≈ 611 mM); side effects [6]: lack of side effects
– | CC(O)C(=O)Nc1c(I)c(C(=O)NC(CO)CO)c(I)c(C(=O)NC(CO)CO)c1I (stereo not drawn) [E, 5-α-hydroxypropionylamino-2,4,6-triiodo-isophthalic acid-bis-(1,3-dihydroxyisopropylamide)] | 22.2 | 1500 | 21800 | –
dissolves readily in water | CC(O)C(=O)Nc1c(I)c(C(=O)NCCCOCCOCCOCCOCCCNC(=O)c2c(I)c(NC(=O)C(C)O)c(I)c(C(=O)NC(C)(CO)CO)c2I)c(I)c(C(=O)NC(C)(CO)CO)c1I (stereo not shown) [Example 9, 1,16-bis-[5-(1,3-dihydroxy-2-methyl-2propyl)aminocarbonyl-3-(2-hydroxypropionyl)amino-2,4,6-triiodo-benzoylamino]-4,7,10,13tetraoxahexadecane] | – | – | – | –
dissolved readily in water | CC(O)C(=O)Nc1c(I)c(C(=O)NCCOCCOCCOCCOCCNC(=O)c2c(I)c(NC(=O)C(C)O)c(I)c(C(=O)NC(C)(CO)CO)c2I)c(I)c(C(=O)NC(C)(CO)CO)c1I (stereo not shown) [Example 10, 1,14-bis-[5-(1,3-dihydroxy-2methyl-2-propyl)aminocarbonyl-3-(2-hydroxypropionyl)amino-2,4,6-triiodo-benzoylamino]-3,6,9,12-tetraoxatetradecane] | – | – | – | –
– | CC(O)C(=O)Nc1c(I)c(C(=O)NCCOCCNC(=O)c2c(I)c(NC(=O)C(C)O)c(I)c(C(=O)NC(C)(CO)CO)c2I)c(I)c(C(=O)NC(C)(CO)CO)c1I (stereo not shown) [Example 11, 1,5-Bis-[5-(1,3-dihydroxy-2-methyl-2-propyl)aminocarbonyl-3-(2-hydroxypropionyl)amino-2,4,6-triiodo-benzoylamino]-3-oxapentane] | – | – | – | solubility ([2]; water, per 100 ml, 20° C., read-out: solubility in water): > 1000 mg/mL
readily dissolved in water | O=C(CO)Nc1c(I)c(C(=O)NCCOCCOCCOCCOCCNC(=O)c2c(I)c(NC(=O)CO)c(I)c(C(=O)NC(CO)CO)c2I)c(I)c(C(=O)NC(CO)CO)c1I [Example 12, 1,14-bis-[5-(1,3-dihydroxyisopropyl)aminocarbonyl-3-hydroxy-acetylamino-2,4,6-triiodo-benzoylamino]-3,6,9,12-tetraoxa-tetradecane] | – | – | – | –
– | CC(=O)Nc1c(I)c(C(=O)N[C@H]2C(O)O[C@H](CO)[C@@H](O)[C@@H]2O)c(I)c(N(C)C(C)=O)c1I (stereo partly shown) [F, 3-acetylamino-5-N-methyl-acetylamino-2,4,6-triiodo-benzoyl-glucosamine] | 14.7 | 1400 | 10200 | –
– | CNC(=O)c1c(I)c(NC(=O)CCCCC(=O)Nc2c(I)c(C(=O)O)c(I)c(C(=O)NC)c2I)c(I)c(C(=O)O)c1I [G, 5,5'-adipoyldiimino-bis-(2,4,6-triiodo-N-methyl-isophthalamic acid)] | – | 600 | 5500 | Osmotic pressure ([1]; 280 mg I/ml): 27.5 atm.
– | CNC(=O)c1c(I)c(NC(=O)CN(CC(=O)Nc2c(I)c(C(=O)O)c(I)c(C(=O)NC)c2I)CC(=O)Nc2c(I)c(C(=O)O)c(I)c(C(=O)NC)c2I)c(I)c(C(=O)O)c1I [H, 5,5',5"-(nitrilotriacetyl-triimino-tris-)-2,4,6-triiodo-N'-methyl-isophthalamic acid] | 36.2 | – | 5800 | –
– | CC(=O)Nc1c(I)c(NC(C)=O)c(I)c(C(=O)O)c1I [I, 3,5-bis-acetylamino-2,4,6-triiodobenzoic acid] | – | – | 7600 | –

SMILES | solubility in water ([2]; water, in words) | Osmotic pressure ([1]; 400 mg I per ml) [atm.] | Toxicity, LD50, intracerebral (mouse [3]) [mg I/kg] | Toxicity, LD50, intravenous (mouse [7]) [mg I/kg] | further results
CC(O)C(=O)Nc1c(I)c(C(=O)NC(CO)CO)c(I)c(C(=O)N(C)CCOCCOCCOCCN(C)C(=O)c2c(I)c(NC(=O)C(C)O)c(I)c(C(=O)NC(CO)CO)c2I)c1I (stereo not shown) [Compound C, 1,11-bis [N-methyl-N-{5-(1,3-dihydroxyisopropyl)aminocarbonyl-3-(2-hydroxypropionyl)amino-2,4,6-triiodobenzoyl}-amino]-3,6,9-trioxaundecane] | dissolves readily in water | 10.59 | 1130 | 14000 | viscosity [4]: relatively low viscosity; stability of solutions [5]: stable; storage life of solutions [5]: long storage life; intracisternal toxicity (rabbits; in words): particularly low; LD50 (48 hours), intracisternal (rabbits; rabbits, 48 hours): about 233 mg I per kg; solubility in ethanol ([2]; ethanol, in words): only moderately well in ethanol; side effects [6]: lack of side effects
CC(O)C(=O)Nc1c(I)c(C(=O)NC(CO)CO)c(I)c(C(=O)N(C)CCCOCCOCCOCCOCCCN(C)C(=O)c2c(I)c(NC(=O)C(C)O)c(I)c(C(=O)NC(CO)CO)c2I)c1I (stereo not shown) [Compound D, 1,16-bis-[N-methyl-N-{5-(1,3-dihydroxyisopropyl)aminocarbonyl-3-(2-hydroxypropionyl)amino-2,4,6-triiodobenzoyl}amino]-4,7,10,13-tetraoxahexadecane] | dissolves very readily in water; also recorded: readily dissolved in water | 9.42 | 1420 | – | solubility in methanol ([2]; methanol, in words): soluble in methanol
